For assay [1], the system named is HT-29 cells. In words: Cell viability assay (CCK-8), HT-29. To be noted: HT-29, 48 h; for IC50: Homo sapiens, read-out: Antiproliferation activity (pIC50 ± SEM) HT-29 (converted). The class given is cell-based, human. Here is the method:
(§1) Various cancer cell lines, including human colon cancer cell line HT-29, ovarian cell line OVCAR-3, melanoma cell line B16-F10, skin squamous cancer cells A431, cervical cancer cells Hela, lung cancer cell lines A549, H1975, and HCC827, were purchased from American type culture collection (ATCC). A431, H1975, B16-F10, OVCAR-3, HT-29, HCC827, Hela, and A549 cells were cultured in Dulbecco’s modified Eagle medium (DMEM, Gibco) containing 10% fetal bovine serum (FBS, Gibco), penicillin (100 U/ml) and streptomycin (100 μg/ml). All cell lines were maintained in a humidified 37°C incubator with 5% CO2. The medium was refreshed every 2–3 days and the cells were passaged at ∼90% confluence by adding the fresh medium, followed by vigorously pipetting the resuspend cells. Of note, the cells were only washed with PBS when a significant number of dead cells were observed.
(§2) The antiproliferation activity of the compounds against the cancer cell lines was evaluated using Cell Counting Kit-8. Briefly, cells (∼1,000 per well) in 100 µl of culture medium were plated in a 96-well plate for 24 h and 100 µl of medium with different concentrations of the tested compounds was added to each well for 48 h. Then 10 μl of CCK8 solution (#CK04, Dojindo) was added and incubated at 37°C for 2 h. The absorbance of each well was measured with a plate reader (BioTeck) at 450 nm. Cell viability was calculated as follows: cell viability (%) = [(As-Ab)/(Ac-Ab)] × 100. Among them, As represents the absorbance of experimental wells, Ab represents the absorbance of blank wells and Ac represents the absorbance of control wells. The experiments were repeated at least three times and IC50 values were determined by plotting a log(inhibitor) v. s normalized response (Variable slope) dose–response curve generated using GraphPad Prism software.

The test system of assay [2] is A549 cells. In words: Cell viability assay (CCK-8), A549. To be noted: A549, 48 h; for IC50: Homo sapiens, read-out: Antiproliferation activity (pIC50 ± SEM) A549 (converted). The class given is cell-based. Here is the method:
as §1, §2

Assay [3] has as its system H1975 cells. In words: Cell viability assay (CCK-8), H1975. To be noted: for IC50: Homo sapiens, NCI-H1975, H1975, 48 h, read-out: Antiproliferation activity (pIC50 ± SEM) H1975 (converted). The class given is cell-based. Here is the method:
as §1, §2

Assay [4] deals with T1, human ABHD12 (Homo sapiens, UniProt Q8N2K0).
T1 construct: expressed in transfected cells; host or cells: HEK293T (transient transfection; membrane fraction)
T1 sequence (Q8N2K0 1-398): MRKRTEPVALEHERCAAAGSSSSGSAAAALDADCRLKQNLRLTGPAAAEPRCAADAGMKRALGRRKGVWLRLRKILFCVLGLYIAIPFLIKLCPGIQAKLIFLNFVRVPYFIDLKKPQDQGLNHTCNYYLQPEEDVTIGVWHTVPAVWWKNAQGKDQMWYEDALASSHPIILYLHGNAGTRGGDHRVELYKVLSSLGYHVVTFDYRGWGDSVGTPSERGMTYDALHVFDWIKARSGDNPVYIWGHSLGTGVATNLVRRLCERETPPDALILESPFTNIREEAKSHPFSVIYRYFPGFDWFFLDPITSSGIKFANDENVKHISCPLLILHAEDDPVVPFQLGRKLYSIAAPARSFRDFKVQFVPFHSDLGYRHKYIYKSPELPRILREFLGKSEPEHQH
In words: ABHD12 activity by competitive ABPP with FP-TAMRA. The class given is biochemical. The note with it: for potency towards ABHD12: 100 µM; for potency towards ABHD12 / inhibition at 100 µM: competitive ABPP; for inhibition at 100 µM: recombinant human ABHD12, 100 µM compound. A digest of the protocol: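 Membrane fractions of HEK293T cells transiently overexpressing human ABHD12 (1 mg/ml) preincubated with inhibitor or DMSO for 30 min at room temperature, then labelled with FP-TAMRA (250 nM final) for 20 min. Quenched samples resolved by SDS-PAGE and read by in-gel fluorescence scanning (Cy3 settings).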

Assay [5] deals with OVCAR-3 cells. In words: Cell viability assay (CCK-8), OVCAR-3. In kind it is cell-based. The note with it: OVCAR-3, 48 h; for IC50: Homo sapiens, read-out: Antiproliferation activity (pIC50 ± SEM) OVCAR-3 (converted). Here is the method: as §1, §2
Setting [6] is: 100 µM compound, competitive ABPP with probe FP-TAMRA (250 nM), read-out: ABHD12 Inhibition (%).

A value given as a limit tells only on which side of the number the result lay.

Take `Cl.N=c1ccn2c(n1)O[C@H]1[C@H](O)[C@@H](CO)O[C@H]12` [compound 1, Cyclocytidine HCl]: the “Antiproliferation activity (pIC50 ± SEM) HT-29” value in assay [1] was under 5. Further, the “Antiproliferation activity (pIC50 ± SEM) A549” value in assay [2] was 6.3 ± 0.2. Besides, the “Antiproliferation activity (pIC50 ± SEM) H1975” value in assay [3] (H1975, 48 h) is under 5. Moreover, in assay [4] (setting [6]), the activity turned out to be 70.1%. For the same molecule, the “Antiproliferation activity (pIC50 ± SEM) OVCAR-3” value in assay [5] was found to be 5.7 ± 0.3.
Regarding `O=c1cc(-c2ccc(O)cc2)oc2cc(O)cc(O)c12` [compound 9, Apigenin], the IC50 in assay [1], in assay [2], in assay [3] and in assay [5] was over 10 µM throughout. For the same molecule, in assay [4] (setting [6]), the activity at 100 µM worked out at 62.8%. The “potency towards ABHD12” value in assay [4] is “neglectable potency”. Also, in assay [4], the inhibition at 100 µM came out at 37%.
Take `COc1ccc2cc3[n+](cc2c1OC)CCc1cc2c(cc1-3)OCO2` [compound 17, Berberine chloride]: the IC50 in assay [1], in assay [2], in assay [3] and in assay [5] was over 10 µM throughout. Also, the activity at 100 µM in assay [4] (setting [6]) worked out at 86.1%.
`C[C@H]1COC2=C1C(=O)C(=O)c1c2ccc2c1CCCC2(C)C` [compound 23, Cryptotanshinone]: the IC50 in assay [1] was 10 µM; in assay [2], 3.16 µM; in assay [3], 10 µM; in assay [5], 5.01 µM. Further, the activity at 100 µM in assay [4] (setting [6]) was found to be 81.6%. Also, in assay [4], the “potency towards ABHD12” value is on record as “neglectable potency”. Moreover, the inhibition at 100 µM in assay [4] amounted to 18%.
Turning to `COc1ccc(C(C)=O)c(O)c1` [compound 64, Paeonol], the IC50 in assay [1], in assay [2], in assay [3] and in assay [5] was over 10 µM throughout. Besides, the activity at 100 µM in assay [4] (setting [6]) came to 92.2%.

(Values after article PMC9465256, “Discovering monoacylglycerol lipase inhibitors by a combination of fluorogenic substrate assay and activity-based protein profiling” (Frontiers in Pharmacology, 2022).)
